From paper PMC4629130, “Human Odorant Reception in the Common Bed Bug, Cimex lectularius” (Scientific Reports, 2015) come the findings set out here.

The structures appear in SMILES notation.

The target in one assay is T1, ClOr2/Orco (Cimex lectularius, UniProt A0A8I6SBL2).
T1 construct: entire coding regions of ClOr2 and ClOrco in pT7Ts, cRNAs co-injected into Xenopus oocytes; heteromeric receptor channel; clusters with Rhodnius RpOr105; with Odorant receptor coreceptor
The assay can be described thus: two-electrode voltage clamp, Xenopus oocytes. Format: cell-based.

Another assay concerns the target T2, ClOr1/Orco (Cimex lectularius, UniProt A0A8I6SE58).
T2 construct: entire coding regions of ClOr1 and ClOrco in pT7Ts, cRNAs co-injected into Xenopus oocytes; heteromeric receptor channel; with Odorant receptor coreceptor
The assay can be described thus: two-electrode voltage clamp, Xenopus oocytes. Format: cell-based.

T2 sequence (A0A8I6SE58 1-379): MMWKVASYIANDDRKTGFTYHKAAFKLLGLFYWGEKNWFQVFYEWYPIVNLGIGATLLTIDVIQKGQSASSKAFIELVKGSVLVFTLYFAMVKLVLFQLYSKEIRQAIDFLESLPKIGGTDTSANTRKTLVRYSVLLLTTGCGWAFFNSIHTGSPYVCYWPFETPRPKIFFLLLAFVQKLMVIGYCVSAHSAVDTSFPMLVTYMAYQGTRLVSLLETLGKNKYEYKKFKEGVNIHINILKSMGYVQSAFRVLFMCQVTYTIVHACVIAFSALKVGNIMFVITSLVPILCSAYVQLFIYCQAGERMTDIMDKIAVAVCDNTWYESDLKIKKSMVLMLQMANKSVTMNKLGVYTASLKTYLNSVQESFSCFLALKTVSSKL
T2 sequence (A0A0A0U7J0 1-451 partner): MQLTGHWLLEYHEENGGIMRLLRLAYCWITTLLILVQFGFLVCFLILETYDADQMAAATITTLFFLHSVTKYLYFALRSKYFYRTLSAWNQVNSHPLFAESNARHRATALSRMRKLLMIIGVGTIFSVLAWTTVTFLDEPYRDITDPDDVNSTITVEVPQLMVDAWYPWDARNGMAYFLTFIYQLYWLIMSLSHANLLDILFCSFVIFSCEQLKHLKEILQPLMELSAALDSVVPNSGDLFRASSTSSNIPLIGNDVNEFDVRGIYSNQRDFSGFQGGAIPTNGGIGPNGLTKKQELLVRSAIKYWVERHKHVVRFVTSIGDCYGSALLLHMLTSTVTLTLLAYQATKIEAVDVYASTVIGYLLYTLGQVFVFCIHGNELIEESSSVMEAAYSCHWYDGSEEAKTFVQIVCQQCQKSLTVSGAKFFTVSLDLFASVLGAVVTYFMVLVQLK
T1 sequence (A0A8I6SBL2 1-382): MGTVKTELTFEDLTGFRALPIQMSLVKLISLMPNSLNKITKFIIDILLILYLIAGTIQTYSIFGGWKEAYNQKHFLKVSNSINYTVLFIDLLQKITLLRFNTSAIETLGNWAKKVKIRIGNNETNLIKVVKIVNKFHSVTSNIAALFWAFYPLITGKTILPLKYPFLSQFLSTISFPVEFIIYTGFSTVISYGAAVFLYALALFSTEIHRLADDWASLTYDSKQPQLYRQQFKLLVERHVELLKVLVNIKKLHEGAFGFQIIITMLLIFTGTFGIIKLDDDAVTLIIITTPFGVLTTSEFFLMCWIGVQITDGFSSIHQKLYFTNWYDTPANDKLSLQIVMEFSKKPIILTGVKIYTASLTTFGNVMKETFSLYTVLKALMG
T1 sequence (A0A0A0U7J0 1-451 partner): as the sequence (A0A0A0U7J0 1-451 partner) above

Regarding `CCCCCCCCCC=O` [decanal], on ClOr2/Orco, a half-maximal response (EC50) required 6.42 µM. Take `CCCCCCCCC=O` [nonanal]: it took 519 nM to reach a half-maximal effect on ClOr1/Orco (EC50).

In the case of `CCCCCCCC=O` [octanal], a half-maximal response on ClOr1/Orco (EC50) required 3400 nM.
